Reference: patent publication US20250152591A1, “TREATMENT OF HEMATOLOGICAL MALIGNANCIES WITH MENIN INHIBITORS AND P-GLYCOPROTEIN INHIBITORS” (Kura Oncology, Inc., priority 2022, published 2025)
Read-outs that look alike come from different tables or passages of the source. Each block holds one compound with its values, some of them ahead of it.

Key:
MOLM13-PGP cell line = experiment: Cell viability assay, MOLM13-PGP; type: cell-based; set-up: unit of the concentration uncertain; settings: 168 h, 7 days
Description: (§1) The effects described above were investigated in an AML cell line, MOLM-13, which carries a KA4T2A (MLL)-rearrangement mutation. The P-gp expressing MOLM-13 cell line (MOLM13-PGP) and the Luciferase expressing MOLM-13 cell line (MOLM13-Control) were established by lentivirally transducing P-gp ORF or Luciferase ORF. Cells were plated and treated with test compound for 7 days.

OCI-AML3-PGP cell line = experiment: Cell viability assay, OCI-AML3-PGP; type: cell-based; set-up: unit of the concentration uncertain; settings: 168 h, 7 days
Description: (§2) A third set of experiments was conducted in the cell line OCI-AML3, which carries the W288Cfs*12 mutation in NPM protein. The P-gp expressing OCI-AML3 cell line (OCI-AML3-PGP) and the Luciferase expressing OC-AML3 cell line (OCI-AML3-Control) were established by lentivirally transducing P-gp ORF or Luciferase ORF. Cells were treated with Compound I or SNDX-5613 for 7 days to assess the IC50 values.

MV4;11-Control cell line = experiment: CellTiter-Glo cell viability assay, MV4;11-Control; type: cell-based; set-up: unit of the concentration uncertain; settings: second set of experiments
Description: (§3) The influence of efflux pumps on the antitumor activity of the test compounds at steady state (more clinically relevant) were evaluated using P-gp-transfected AML cells (MV4;11 cells) in 6-day viability assays.
(§4) A P-gp-expressing KMT2A(MLL)-rearranged cell line model was developed by lentiviral transduction of the MV4;11 parental cell line and then selection for either Luciferase ORF (MV4;11-Control) or P-gp ORF (MV4;11-PGP).
(§5) […] Cell viability was measured by CellTiter-Glo® Luminescent Cell Viability Assay (CTG assay, Promega Corp.) and % Viability was quantified by normalizing to the luminescence values of DMSO-only treated cells. The dose-response curves and IC50's were calculated using GraphPad Prism 9.4.1.
(§6) The measured luminescence in the live cells of the MV4;11-Control and MV4;11-PGP cells that were treated with Compound I only (+DMSO), Compound I+posaconazole […], and valspodar (1 mM) are shown in FIGS. 5A and 5B.
(§7) In a second set of experiments, MV4;11-Control and MV4;11-PGP cell lines were treated as described above with five menin inhibitors, including Compound I, SNDX-5613, Compound A, Compound B, and Compound C, at concentrations ranging from 0 to 1000 nM. All tested compounds dropped in potency due to the P-gp expression as shown in FIGS. 6A-6J and in Tables 5 and 6 (indicated by increased IC50 values between “MV4;11-Control (Compound+DMSO)” and “MV4;11-PGP (Compound+DMSO)” entries).

[1] = tested on: OCI-AML3-Control cell line; experiment: Cell viability assay, OCI-AML3-Control; type: cell-based; set-up: unit of the concentration uncertain; settings: 168 h, 7 days
Description: as §2

MV4;11-PGP cell line = experiment: CellTiter-Glo cell viability assay, MV4;11-PGP; type: cell-based; set-up: unit of the concentration uncertain; settings: second set of experiments
Description: as §3, §4, §5, §6, §7

MOLM13-Control cell line = experiment: Cell viability assay, MOLM13-Control; type: cell-based; set-up: unit of the concentration uncertain; settings: 168 h, 7 days
Description: as §1

Menin = molecular target: T1, Menin (Homo sapiens, UniProt O00255); experiment: Menin binding, fluorescence polarization assay; settings: fluorescence polarization assay analogous to WO2017/161028, Example 6
T1 sequence (O00255 1-610): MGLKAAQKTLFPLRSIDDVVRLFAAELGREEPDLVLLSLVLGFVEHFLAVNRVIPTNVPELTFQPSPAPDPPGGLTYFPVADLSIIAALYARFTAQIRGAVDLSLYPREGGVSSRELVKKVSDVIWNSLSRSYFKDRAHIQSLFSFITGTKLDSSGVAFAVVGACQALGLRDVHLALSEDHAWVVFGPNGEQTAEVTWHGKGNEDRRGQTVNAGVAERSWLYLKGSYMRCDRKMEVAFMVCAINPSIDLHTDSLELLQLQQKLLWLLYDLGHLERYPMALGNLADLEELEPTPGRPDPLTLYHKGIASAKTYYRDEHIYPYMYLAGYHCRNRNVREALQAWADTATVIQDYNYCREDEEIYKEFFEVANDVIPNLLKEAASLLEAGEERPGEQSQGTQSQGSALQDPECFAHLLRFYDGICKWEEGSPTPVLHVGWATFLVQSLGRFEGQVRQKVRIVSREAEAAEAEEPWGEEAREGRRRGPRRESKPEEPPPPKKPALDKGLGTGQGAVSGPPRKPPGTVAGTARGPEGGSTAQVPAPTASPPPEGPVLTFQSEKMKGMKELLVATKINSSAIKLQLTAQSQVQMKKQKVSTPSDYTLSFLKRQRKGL
Description: Menin binding was evaluated using an assay analogous to the fluorescence polarization assay described in PCT Publ. No. WO2017/161028, Example 6.

SMILES: CCN(C(=O)c1cc(F)ccc1Oc1cncnc1N1CC2(CCN(C[C@H]3CC[C@H](NS(=O)(=O)CC)CC3)CC2)C1)C(C)C [SNDX-5613]
IC50 (MOLM13-PGP cell line; Table 7, read-out: IC50 MOLM13-PGP (Compound + DMSO)): > 900 nM | IC50 (MOLM13-PGP cell line; posaconazole (1.5 (unit uncertain)), Table 7, read-out: IC50 MOLM13-PGP (Compound + posaconazole)): 38.6 nM | IC50 (MOLM13-PGP cell line; valspodar (1 (unit uncertain)), Table 8, read-out: IC50 MOLM13-PGP (Compound + valspodar)): 37.1 nM | IC50 (OCI-AML3-PGP cell line; Table 9, read-out: IC50 OCI-AML3-PGP (Compound + DMSO)): > 300 nM | IC50 (OCI-AML3-PGP cell line; posaconazole (0.75 (unit uncertain)), Table 9, read-out: IC50 OCI-AML3-PGP (Compound + posaconazole)): 47.7 nM | IC50 (OCI-AML3-PGP cell line; valspodar (1 (unit uncertain)), Table 10, read-out: IC50 OCI-AML3-PGP (Compound + valspodar)): 31.7 nM | IC50 (MV4;11-Control cell line; 144 h, 0 to 1000 nM, Table 5, read-out: IC50 MV4;11-Control (Compound + DMSO)): 8.55 nM | IC50 (MV4;11-Control cell line; 144 h, 0 to 1000 nM, Table 6, read-out: IC50 MV4;11-Control (Compound + DMSO)): 8.58 nM | IC50 (MV4;11-Control cell line; posaconazole (1.5 (unit uncertain)), Table 5, read-out: IC50 MV4;11-Control (Compound + posaconazole)): 7.33 nM | IC50 (MV4;11-Control cell line; valspodar (1 (unit uncertain)), Table 6, read-out: IC50 MV4;11-Control (Compound + valspodar)): 7.61 nM | IC50 ([1]; Table 9, read-out: IC50 OCI-AML3-Control (Compound + DMSO)): 25.7 nM | IC50 ([1]; Table 10, read-out: IC50 OCI-AML3-Control (Compound + DMSO)): 26.4 nM | IC50 ([1]; posaconazole (0.75 (unit uncertain)), Table 9, read-out: IC50 OCI-AML3-Control (Compound + posaconazole)): 38.8 nM | IC50 ([1]; valspodar (1 (unit uncertain)), Table 10, read-out: IC50 OCI-AML3-Control (Compound + valspodar)): 41.5 nM | IC50 (MV4;11-PGP cell line; 144 h, 0 to 1000 nM, Table 5, read-out: IC50 MV4;11-PGP (Compound + DMSO)): 183 nM | IC50 (MV4;11-PGP cell line; 144 h, 0 to 1000 nM, Table 6, read-out: IC50 MV4;11-PGP (Compound + DMSO)): 173 nM | IC50 (MV4;11-PGP cell line; posaconazole (1.5 (unit uncertain)), Table 5, read-out: IC50 MV4;11-PGP (Compound + posaconazole)): 17.1 nM | IC50 (MV4;11-PGP cell line; valspodar (1 (unit uncertain)), Table 6, read-out: IC50 MV4;11-PGP (Compound + valspodar)): 8.15 nM | IC50 (MOLM13-Control cell line; Table 7, read-out: IC50 MOLM13-Control (Compound + DMSO)): 30.1 nM | IC50 (MOLM13-Control cell line; Table 8, read-out: IC50 MOLM13-Control (compound + DMSO)): 28 nM | IC50 (MOLM13-Control cell line; posaconazole (1.5 (unit uncertain)), Table 7, read-out: IC50 MOLM13-Control (Compound + posaconazole)): 24.8 nM | IC50 (MOLM13-Control cell line; valspodar (1 (unit uncertain)), Table 8, read-out: IC50 MOLM13-Control (Compound + valspodar)): 29.5 nM

IC50 (Menin): 36.2 nM
SMILES: Cc1c(CN2CCC(Nc3nc(N)nc4sc(CC(F)(F)F)cc34)CC2)ccc2c1cc(C#N)n2C[C@H](C)N1CCN(S(C)(=O)=O)CC1 [Compound IA]

IC50 (Menin): 63.5 nM
SMILES: CNc1nc(NC2CCN(Cc3ccc4c(cc(C#N)n4C[C@H](C)N4CCN(S(C)(=O)=O)CC4)c3C)CC2)c2cc([C@@H](O)C(F)(F)F)sc2n1 [Compound IB, 4-methyl-5-((4-((2-(methylamino)-6-((S)-2,2,2-trifluoro-1-hydroxyethyl)thieno[2,3-d]pyrimidin-4-yl)amino)piperidin-1-yl)methyl)-1-((S)-2-(4-(methylsulfonyl)piperazin-1-yl)propyl)-1H-indole-2-carbonitrile]

IC50 (Menin): 401 nM
SMILES: CNc1nc(NC2CCN(Cc3ccc4c(cc(C#N)n4C[C@H](C)N4CCN(S(C)(=O)=O)CC4)c3C)CC2)c2cc([C@H](O)C(F)(F)F)sc2n1 [Compound IC, 4-methyl-5-((4-((2-(methylamino)-6-((R)-2,2,2-trifluoro-1-hydroxyethyl)thieno[2,3-d]pyrimidin-4-yl)amino)piperidin-1-yl)methyl)-1-((S)-2-(4-(methylsulfonyl)piperazin-1-yl)propyl)-1H-indole-2-carbonitrile]
